Source: patent publication US8106003B2, “Peptides and methods for the treatment of inflammatory disease” (Auckland Uniservices Limited, priority 2004, dated 2012)
Entries after “also recorded” stand apart in the source; their conditions may differ. Non-standard residues stand in square brackets, D forms with d. Residues, ends and D or L forms follow the SMILES beside them. No end group written: not given here. *: point of attachment. Biotin = O=C1N[C@H]2[C@H](CS[C@H]2CCCCC(=O)*)N1

Columns and labels:
[1] = test system: kinase(s) in TK-1 cell lysate; test: Assay to test whether β7 cytoplasmic domain peptides bind a kinase(s); type: biochemical, mouse; details: lysates of unactivated or AlF4−-activated TK-1 cells
Protocol: Assay to test whether β7 cytoplasmic domain peptides bind a kinase(s). TK-1 cells (3×10^6) were lysed in 1 ml of lysis buffer, and centrifuged at 12,000×g for 10 min at 4° C. Supernatants were precleared with 10 μl of Sepharose and then 10 μl of streptavidin-Sepharose. Cytoplasmic domain peptides were screened for their ability to associate with a kinase in lysates of TK-1 cells that were either left unactivated or had been activated with AlF4^−. Biotinylated peptides immobilized on 5 μl of streptavidin-Sepharose were incubated with 1 ml of lysis buffer containing 1 μl of cell lysate for 2 h at 4° C. with gentle shaking. The beads were washed thrice with ice-cold lysis buffer, once with kinase buffer, and were incubated with 30 μl kinase buffer and 0.5 to 1 μCi γ-ATP for 20 min at 30° C. Beads were washed five times, and radioactivity measured in a scintillation counter.

[2] = test system: α4β7-mediated adhesion of TK-1 cells to MAdCAM-1; test: Cell adhesion assay: TK-1 cells to immobilised MAdCAM-1-Fc; type: cell-based, mouse; details: for inhibition of TK-1 cell adhesion to MAdCAM-1: Mn++, PMA or AlF4−-activated cells preincubated with increasing concentrations of peptide
Protocol: (§1) Cell adhesion assays. Lab-Tek 16-well glass slides (Nunc) or flat-bottomed 96-well maxisorb plates (Nunc) were coated with purified mouse MAdCAM-1-Fc, human VCAM-1-Fc, and human ICAM-1-Fc (70 to 100 μl of 5 to 10 μg/ml), and incubated at 4° C. overnight. Slides were washed once with PBS, and blocked with FCS for 2 h at room temperature. Slides were washed with Hanks balanced salt solution (HBSS) containing 10 mM Hepes. Cells were either left unlabeled or labeled with the fluorescent dye chloromethyl fluorescein diacetate (CMFDA; Molecular Probes, Oregon), and activated by resuspension in HBSS containing 10 mM Hepes supplemented with 2 mM Ca^++ and 2 mM Mn^++. Cells were alternatively activated with 50 ng/ml PMA, or by incubating with AlF4^− (10 mM NaF and 40 µM AlCl3). They were preincubated with peptides at different concentrations for 10 min at room temperature, checked for viability by trypan blue exclusion, and then 10^6 cells added to each coated well and left to adhere for 30 min at room temperature. Non-adherent unlabeled cells in 16-well glass slides were removed by twice dipping slides gently into PBS, and adherent cells fixed in PBS containing 2% (v/v) glutaraldehyde for at least 3 h. The number of adherent cells was determined by counting the number of adherent cells in four independent fields at 100× magnification under an inverted microscope. Alternatively, non-adherent CMFDA-labeled cells in 96-well plates were removed by inverse centrifugation at 70×g for 5 min into 50 mM Tris pH 7.5, 150 mM NaCl, 2 mM MnCl2, followed by gentle washing with a pipette. The fluorescence of CMFDA-labeled adherent cells was measured using a VICTOR 1420 multilabel counter (Wallac). Unless otherwise stated, experiments were repeated in triplicate, using duplicate wells.

[3] = test system: α4β7-mediated adhesion of TK-1 cells to VCAM-1; test: Cell adhesion assay: TK-1 cells to immobilised VCAM-1-Fc; type: cell-based, mouse; details: for inhibition of TK-1 cell adhesion to VCAM-1: Mn++ or PMA-activated cells preincubated with increasing concentrations of peptide; for inhibition of adhesion of CMFDA-labeled TK-1 cells to immobilized human VCAM-1-Fc: R9-fused L and D analogs of YDRREY, fluorescence readout
Protocol: as §1

[4] = test system: α4β7-mediated adhesion of TK-1 cells to RGD polymer; test: Cell adhesion assay: TK-1 cells to fibronectin-like polymer (RGD); type: cell-based, mouse; details: for inhibition of TK-1 cell adhesion to RGD polymer: Mn++ or PMA-activated cells preincubated with increasing concentrations of peptide
[5] = test system: TK-1 T cells; test: Peptide internalization and visualization in TK-1 cells; type: cell-based, mouse; details: confocal microscopy; for uptake of penetratin-fused peptide into TK-1 cells: 50 μM peptide, 1 h, FITC-streptavidin; for internalization of R9-fused peptide by TK-1 cells: 30 min incubation
Protocol: Peptide internalization and visualization. […] After washing with PBS, cells were resuspended into PBS/1% FCS and cytocentrifuged onto glass slides. Cytospin smears were fixed with 4% paraformaldehyde in PBS for 15 min at room temperature, washed twice with PBS and permeabilized in PBS containing 0.2% Triton X-100 for 10 min. Biotinylated peptide was detected by incubating the slides with streptavidin-FITC (Sigma, Mo.), and visualized using a Leica TCS 4D confocal laser microscope. Images were processed using Leica Scanware™ 4.2 A software and Adobe Photoshop 5.0.

[6] = test system: H9 cells adhered to MAdCAM-1 and VCAM-1; test: Detachment of already adhered H9 cells (established focal adhesions); type: cell-based, human; details: Mn++ and PMA-activated cells, incubated 1 h with peptide after adhesion
Protocol: (§2) FIG. 5: Illustrates peptide β7-2 blocks ligand-induced clustering of α4β7 at the cell surface, but cannot disrupt established focal adhesions. (A) Peptide β7-2 blocks ligand-induced clustering of α4β7. TK-1 cells were preincubated with either the β7-2 or β7-3 peptides, or no peptide, and activated with AlF4^−. Ligand-induced clustering of α4β7 was induced by addition of MAdCAM-1-Fc, and cluster formation after 30 min was determined by staining cells with FITC-conjugated M293 mAb (anti-β7 subunit), followed by confocal microscopy. […] TK-1 (B, D) and H9 (C, E) cells activated with Mn^++, and PMA were adhered to glass slides coated with MAdCAM-1-Fc (B, C), and VCAM-1-Fc (D, E), and then incubated for 1 h with peptide β7-2. Cells bound were counted, and represent the mean±SD from four fields. Experiments were performed in triplicate.
(§3) Cell adhesion assays. Lab-Tek 16-well glass slides (Nunc) or flat-bottomed 96-well maxisorb plates (Nunc) were coated with purified mouse MAdCAM-1-Fc, human VCAM-1-Fc, and human ICAM-1-Fc (70 to 100 μl of 5 to 10 μg/ml), and incubated at 4° C. overnight. […] The number of adherent cells was determined by counting the number of adherent cells in four independent fields at 100× magnification under an inverted microscope. […] The fluorescence of CMFDA-labeled adherent cells was measured using a VICTOR 1420 multilabel counter (Wallac). […]

[7] = test system: MAdCAM-1-induced clustering of α4β7 on TK-1 cells; test: Confocal microscopy analysis of receptor clustering; type: cell-based, mouse; details: AlF4−-activated TK-1 cells, peptide 50 μM
Protocol: Confocal microscopy analysis of receptor clustering. TK-1 cells were incubated in the presence or absence of peptides (50 μM) for 1 h at room temperature, and cells were activated for 30 min at room temperature in HBSS containing 2 mM Ca++ and AlF4^−. Cells were incubated with MAdCAM-1-coated microspheres for 1 h on ice. They were washed with PBS containing 0.02% sodium azide, and fixed in 4% (w/v) paraformaldehyde in PBS for an additional 1 h. They were then stained with FITC-conjugated anti-β7 subunit M293 mAb, washed and fixed as above. Cells were mixed 1:1 with Citifluor glycerol/PBS solution, mounted on slides, and analyzed using a Leica TCS4D confocal laser scanning microscope equipped with an external argon-krypton laser (488 nm). Images were digitally recorded and printed on an Epson colour printer using Microsoft Power Point software.

[8] = test system: adhesion of H9 cells to VCAM-1; test: Cell adhesion assay: H9 cells to VCAM-1-Fc; type: cell-based, human; details: Mn++ or PMA-activated H9 cells
Protocol: as §1

[9] = test system: TK-1 cells adhered to MAdCAM-1 and VCAM-1; test: Detachment of already adhered TK-1 cells (established focal adhesions); type: cell-based, mouse; details: Mn++ and PMA-activated cells, incubated 1 h with peptide after adhesion
Protocol: as §2, §3

[10] = test system: adhesion of H9 cells to MAdCAM-1; test: Cell adhesion assay: H9 cells to MAdCAM-1-Fc; type: cell-based, human; details: Mn++ or PMA-activated H9 cells
Protocol: as §1

[11] = test system: adhesion of H9 cells to RGD polymer; test: Cell adhesion assay: H9 cells to RGD polymer; type: cell-based, human; details: data not shown
[12] = test system: TK-1 T cells; type: cell-based, mouse

Molecule | formation of a phosphorylated complex (kinase association / phosphorylation of immobilized peptide) [1] | inhibition of TK-1 cell adhesion to MAdCAM-1 [2] | inhibition of TK-1 cell adhesion to VCAM-1 [3] | inhibition of TK-1 cell adhesion to RGD polymer [4] | uptake of penetratin-fused peptide into TK-1 cells [5] | inhibition of H9 cell adhesion to VCAM-1 [8] | inhibition of H9 cell adhesion to MAdCAM-1 [10] | other results
β7-10: peptide β7-12 truncated to remove tyrosine 735 (SEQ ID NO. 26), fused to r9 (Biotin-[dR][dR][dR][dR][dR][dR][dR][dR][dR]DRREY) | formed a phosphorylated complex | not able to inhibit | – | – | – | – | – | –
β7-7: β7cyt residues 729-735 (SEQ ID NO. 24) fused to penetratin (Biotin-RQIKIWFQNRRMKWKKRLSVEIY; not fully specified) | did not form a phosphorylated complex | completely ineffective | completely ineffective | completely ineffective | taken up | – | – | –
RLSVEIYDRREY [β7-2] | – | abrogated | abrogated | abrogated | taken up | blocked | blocked | blockade of TK-1 cell-binding to VCAM-1 ([3]; 100 μm of peptide): almost completely blocked; reduction in TK-1 cell binding to the RGD polymer ([4]; 100 μm of peptide): 50%; detachment of H9 cells already adhered to MAdCAM-1 and VCAM-1 [6]: not able to detach; also recorded: cannot disrupt focal adhesions to detach cells; blockade of MAdCAM-1-induced clustering (redistribution) of α4β7 at the cell surface [7]: completely blocked; also recorded: blocks; blockade of TK-1 cell-binding to MAdCAM-1 ([2]; 100 μm of peptide): almost completely blocked; detachment of TK-1 cells already adhered to MAdCAM-1 and VCAM-1 [9]: not able to detach; also recorded: cannot disrupt focal adhesions to detach cells
β7-11: peptide β7-12 truncated to remove tyrosine 740 (SEQ ID NO. 27), fused to r9 (Biotin-[dR][dR][dR][dR][dR][dR][dR][dR][dR]YDRRE) | formed a phosphorylated complex | not able to inhibit | – | – | – | – | – | –
YDRREY [β7-8] (Biotin-RQIKIWFQNRRMKWKKYDRREY; not fully specified) | formed a phosphorylated complex | retained the ability to block | retained the ability to block | retained the ability to block | taken up | also blocked | also blocked | inhibition of H9 cell adhesion to RGD polymer [11]: also blocked
QLNWKQDSNPLYKSAITTT [β7-4] | formed a phosphorylated complex | – | – | – | taken up | completely ineffective | completely ineffective | –
N=C(N)NCCC[C@@H](NC(=O)CCCC[C@@H]1SC[C@@H]2NC(=O)N[C@@H]21)C(=O)N[C@H](CCCNC(=N)N)C(=O)N[C@H](CCCNC(=N)N)C(=O)N[C@H](CCCNC(=N)N)C(=O)N[C@H](CCCNC(=N)N)C(=O)N[C@H](CCCNC(=N)N)C(=O)N[C@H](CCCNC(=N)N)C(=O)N[C@H](CCCNC(=N)N)C(=O)N[C@H](CCCNC(=N)N)C(=O)N[C@H](Cc1ccc(O)cc1)C(=O)N[C@H](CC(=O)O)C(=O)N[C@H](CCCNC(=N)N)C(=O)N[C@H](CCCNC(=N)N)C(=O)N[C@H](CCC(=O)O)C(=O)N[C@H](Cc1ccc(O)cc1)C(=O)O [β7-13] (Biotin-[dR][dR][dR][dR][dR][dR][dR][dR][dR][dY][dD][dR][dR][dE][dY]-OH; N-terminus and C-terminus assumed) | – | – | – | – | – | – | – | cytotoxic concentration ([12]; 2 h): exceeding 50 μM; cell death ([12]; at 100 μM, data not shown): 50%; inhibition of adhesion of CMFDA-labeled TK-1 cells to immobilized human VCAM-1-Fc [3]: inhibit; inhibition of adhesion of CMFDA-labeled TK-1 cells to immobilized human VCAM-1-Fc ([3]; listed as D-amino acid form): as equally potent as the L-enantiomer; internalization of R9-fused peptide by TK-1 cells [5]: internalized
β7-5: extreme C-terminal control peptide of β7cyt (SEQ ID NO. 23) fused to penetratin (Biotin-RQIKIWFQNRRMKWKKTTTINPRFQEADSPTL; not fully specified) | did not form a phosphorylated complex | – | – | – | taken up | completely ineffective | completely ineffective | –
YDRREY [β7-12] | – | inhibited | – | – | – | – | – | inhibition of adhesion of CMFDA-labeled TK-1 cells to immobilized human VCAM-1-Fc [3]: inhibit; internalization of R9-fused peptide by TK-1 cells [5]: rapidly internalized
